Source: publication PMC8943889, “Synthetic studies with the brevicidine and laterocidine lipopeptide antibiotics including analogues with enhanced properties and in vivo efficacy” (Chemical Science, 2022)
In brackets after ≈: the same amount, converted by molar mass. Where two headings read alike, the source gives them in different places. Positions of bridges follow the written chain, without caps; N, C: chain ends. Non-standard residues stand in square brackets, D forms with d. Residues, ends and D or L forms follow the SMILES beside them. *: point of attachment. Octanoyl(7-Me) = CC(C)CCCCCC(=O)*; dOrn = NCCC[C@@H](N)C(=O)O; Orn = NCCC[C@H](N)C(=O)O; Dap = NC[C@H](N)C(=O)O

Legend:
A. baumannii ATCC 17978 = type: cell-based; settings: ATCC 17978, 16 h
Method: (§1) Minimum inhibitory concentrations (MICs) were determined by broth microdilution according to CLSI guidelines in triplicate. Blood agar plates were inoculated with glycerol stocks of E. coli ATCC 25922, E. coli MCR-1 (clinical isolate from Utrecht Medical Centre, NL), E. coli EQAS MCR-2 (clinical isolate from Wageningen University and Research, NL), K. pneumoniae ATCC 11228, K. pneumoniae ATCC 13883, K. pneumonia 2048 (clnical isolate from Vrije Universiteit Amsterdam Medical Centre, NL), K. pneumonia JS-123 (clinical isolate from Utrecht Medical […]
(§2) (clinical isolate from Rijksinstituut voor Volksgezondheid en Milieu, NL), A. baumannii MDR (clinical isolate from Vrije Universiteit Amsterdam Medical Centre, NL), P. aeruginosa ATCC 27853, P. aeruginosa PAO1, P. aeruginosa NRZ-03961 (Reference strain from Das Nationale Referenzzentrum für gramnegative Krankenhauserreger, DE), P. aeruginosa M-120 (clinical isolate from Leiden University Medical Centre, NL) and S. aureus USA300 (clinical isolate from Texas Children's Hospital, USA). E. coli 25922 MCR1 was grown on LB agar supplemented with kanamycin. The inoculated agar plates were then incubated for 16 h at 37°C . Individually grown colonies were subsequently used to inoculate 3 mL aliquots of TSB that were then incubated at 37°C with shaking at 220 rpm. In parallel, the lipopeptide antibiotics to be assessed were serially diluted with Mueller-Hinton broth (MHB) in polypropylene 96-well plates (50 µL in each well).
(§3) Once the OD600 of the bacterial suspensions reached 0.5, the bacteria were diluted with MHB (final concentration 2 × 10^5 CFU mL−1) and added to the microplates containing the test compounds (50 µL to each well, final volume: 100 µL). The well-plates were sealed with an adhesive membrane and after 16 h of incubation at 37°C with shaking at 220 rpm the wells were visually inspected for bacterial growth. MIC values reported are based on three technical replicates and defined as the lowest concentration of the compound that prevented visible growth of bacteria. […]

P. aeruginosa ATCC 27853 = type: cell-based; settings: ATCC 27853, 16 h
Method: as §1, §2, §3

P. aeruginosa PAO1 = type: cell-based; settings: PAO1, 16 h
Method: as §1, §2, §3

P. aeruginosa M-120 = type: cell-based; settings: M-120, 16 h
Method: as §1, §2, §3

E. coli ATCC 25922 [1] = type: cell-based
Method: as §1, §2, §3

P. aeruginosa NRZ-03961 = type: cell-based; settings: NRZ-03961, 16 h
Method: as §1, §2, §3

A. baumannii ATCC 17961 = type: cell-based; settings: ATCC 17961, 16 h
Method: as §1, §2, §3

K. pneumoniae ATCC 11228 = type: cell-based; settings: ATCC 11228, 16 h
Method: as §1, §2, §3

S. aureus USA300 = type: cell-based; settings: USA300, 16 h
Method: as §1, §2, §3

K. pneumoniae 2048 = type: cell-based; settings: 2048, 16 h
Method: as §1, §2, §3

K. pneumoniae ATCC 13883 = type: cell-based; settings: ATCC 13883, 16 h
Method: as §1, §2, §3

K. pneumoniae JS-123 = type: cell-based; settings: JS-123, 16 h
Method: as §1, §2, §3

A. baumannii 2018-006 = type: cell-based; settings: 2018-006, 16 h
Method: as §1, §2, §3

Gram-negative bacteria = assay: MIC comparison across the bacterial panel of Table 1; type: cell-based; settings: enantiomer versus natural product, strains of Table 1
Method: as §1
as §2, with “Individually grown colonies were subsequently used to inoculate 3 mL aliquots of TSB that were then incubated at 37°C with shaking at 220 rpm.” left out, “well). […]” for “well).”

E. coli ATCC 25922 [2] = assay: LPS antagonization assay; type: cell-based; settings: E. coli ATCC 25922, MHB supplemented with 1 mg/mL LPS from E. coli O55:B5, 16 h 37 °C
Method: Figure S6. LPS antagonization assay. A blood agar plate was inoculated with a glycerol stock of E. coli ATCC 25922. The […]
inoculated agar plate was then incubated for 16 h at 37 °C. An individually grown colony was subsequently used to inoculate 3 mL […]
of TSB that was then incubated at 37 °C with shaking at 220 rpm. In parallel, the compounds to be assessed were serially diluted […]
with Mueller-Hinton broth (MHB) in polypropylene 96-well plates (50 µL in each well). Once the OD600 of the bacterial […]
suspensions reached 0.5, the bacteria were diluted with MHB (final concentration 2 × 10^5 CFU mL−1). The media were then either […]
supplemented with 1 mg/mL of LPS (lipopolysaccharides from E. coli O55:B5, Sigma-Aldrich) or added directly to the microplates […]
containing the test compounds (50 µL to each well, final volume: 100 µL). The well-plates were sealed with an adhesive membrane and after 16 h of incubation at 37°C with shaking at 220 rpm. The w ells were visually inspected for bacterial growth.
(1 picture or pasted object on this page, not shown here)

[3] = In vivo tolerability study; settings: naïve ICR mice, subcutaneous, 40 mg kg^−1 q8h over 24 h (total daily dose 120 mg kg^−1)
Method: (§4) In vivo tolerability and efficacy studies
(§5) Ethical Issues. Animal experiments were performed under UK Home Office Licences P89653310 (tolerability and PK) and PA67E0BAA (thigh efficacy), with local ethical committee clearance.
(§6) Animal Strain. Mice used in these studies were supplied by Charles River (Margate UK) and were specific pathogen free. The strain of mice used was ICR (also known as CD1 Mice) which is a well characterized outbred murine strain. Mice (male) were 11-15 g on receipt and were allowed to acclimatise for at least 7 days.
(§7) Animal Housing. Mice were housed in sterilised individual ventilated cages exposing the mice at all times to HEPA filtered sterile air. Mice had free access to food and water and had aspen chip bedding (changed at least once weekly). The room temperature was 22°C +/ - 1°C, with a relative humidity of 60% and maximum background noise of 56 dB. Mice were exposed to 12 h light/dark […]
Test compounds. Compound 6 was dissolved in water for injection in which it formed a clear colourless solution. Polymyxin B was dissolved in saline for injection to produce a clear colourless […]
Tolerability study. The tolerability of compound 6 was assessed in the same mouse strain used for the efficacy studies. Compound 6 was administered via subcutaneous administration route at 3 8-h […]
The mice used in the tolerability study were naïve and were not immunosuppressed or infected. […]

E. coli ATCC 25922 [4] = assay: Neutropenic mouse thigh infection efficacy study; type: in vivo, mice (ICR); settings: neutropenic mice
Method: as §4, §5, §6, §7
Test compounds. Compound 6 was dissolved in water for injection in which it formed a clear […]
colourless solution. […]
Compound 6 was administered via subcutaneous administration route at 3 8-h […]
The mice used in the tolerability study were naïve and were not immunosuppressed or infected.
Efficacy study. The in vivo efficacy of compound 6 was assessed in a mouse thigh abscess model where both thighs of each mouse were infected with E. coli ATCC 25922
Immunosuppression. […]
Endpoints. One h and 20.5 (planned 25) h post-infection, the clinical condition of all animals was assessed prior to humane euthanasia using pentobarbitone overdose, and the thighs were removed and weighed. Thigh samples were homogenized in 3mL ice cold sterile PBS; the homogenates were quantitatively cultured onto CLED agar and incubated at 37°C for 18 - 24 h before colonies were […]
Data analysis. The data from the culture burdens were analysed using appropriate non-parametric statistical models (Kruskal-Wallis using Conover-Inman to make all pairwise comparisons between groups) with StatsDirect software v. […]

With `CC[C@@H](C)[C@H]1NC(=O)[C@H](NC(=O)[C@@H](Cc2c[nH]c3ccccc23)NC(=O)[C@H](CCCN)NC(=O)CNC(=O)[C@@H](CCCN)NC(=O)[C@H](CCCN)NC(=O)[C@H](Cc2c[nH]c3ccccc23)NC(=O)[C@H](Cc2ccc(O)cc2)NC(=O)[C@H](CO)NC(=O)CCCCCC(C)C)[C@H](C)OC(=O)CNC(=O)CNC(=O)[C@@H](CC(N)=O)NC1=O` (single isomer, unassigned) [ent-Lat (ent-2), ent-laterocidine] the MIC (A. baumannii ATCC 17978) was 4 µg/mL (≈ 2.49 µM), the MIC (P. aeruginosa ATCC 27853) was 8 µg/mL (≈ 4.98 µM) and the MIC (P. aeruginosa PAO1) was 16 µg/mL (≈ 9.97 µM). The MIC (P. aeruginosa M-120) was 16 µg/mL (≈ 9.97 µM), the MIC (E. coli ATCC 25922 [1]; ATCC 25922, 16 h) was 8 µg/mL (≈ 4.98 µM) and the MIC (P. aeruginosa NRZ-03961) was 16 µg/mL (≈ 9.97 µM). The MIC (A. baumannii ATCC 17961) was 4 µg/mL (≈ 2.49 µM), the MIC (K. pneumoniae ATCC 11228) was 16 µg/mL (≈ 9.97 µM) and the MIC (S. aureus USA300) was 64 µg/mL (≈ 39.9 µM). The MIC (K. pneumoniae 2048) was 16 µg/mL (≈ 9.97 µM), the MIC (K. pneumoniae ATCC 13883) was 16 µg/mL (≈ 9.97 µM) and the MIC (K. pneumoniae JS-123) was 4 µg/mL (≈ 2.49 µM). The MIC (A. baumannii 2018-006) was 4 µg/mL (≈ 2.49 µM), the “MIC values higher than the natural products” value (Gram-negative bacteria) was 8- to 32 fold and the “decrease of antibacterial activity in the presence of LPS” value (E. coli ATCC 25922 [2]) was ≥ 8 fold.

`CC[C@H](C)[C@@H]1NC(=O)[C@@H](NC(=O)[C@H](Cc2c[nH]c3ccccc23)NC(=O)[C@@H](CCCN)NC(=O)CNC(=O)[C@H](CCCN)NC(=O)[C@@H](CCCN)NC(=O)[C@@H](Cc2c[nH]c3ccccc23)NC(=O)[C@@H](Cc2ccc(O)cc2)NC(=O)[C@@H](CO)NC(=O)CCCCCC(C)C)CNC(=O)CNC(=O)CNC(=O)[C@H](CC(N)=O)NC1=O` [Dap9-Lat (6), Dap9-laterocidamide] ({Octanoyl(7-Me)}-[dS][dY][dW][dOrn][Orn]G[dOrn]W[Dap]INGG; lactam 9-C) gave an MIC (A. baumannii ATCC 17978) of 4 µg/mL (≈ 2.52 µM), an MIC (P. aeruginosa ATCC 27853) of 0.5 to 1 µg/mL and an MIC (P. aeruginosa PAO1) of 1 to 2 µg/mL. For the same molecule, the MIC (P. aeruginosa M-120) was 1 to 2 µg/mL, the MIC (E. coli ATCC 25922 [1]; ATCC 25922, 16 h) was 1 µg/mL (≈ 0.629 µM) and the MIC (E. coli ATCC 25922 [1]; Ec ATCC 25922, broth microdilution (CLSI), MHB, 2 × 10^5 CFU/mL, 16 h 37 °C, visual read-out, three technical replicates) was 1.0 µg/mL (≈ 0.629 µM). It also gave an MIC (P. aeruginosa NRZ-03961) of 2 µg/mL (≈ 1.26 µM), an MIC (A. baumannii ATCC 17961) of 4 µg/mL (≈ 2.52 µM) and an MIC (K. pneumoniae ATCC 11228) of 2 µg/mL (≈ 1.26 µM). The MIC (S. aureus USA300) was >64 µg/mL, the MIC (K. pneumoniae 2048) was 2 µg/mL (≈ 1.26 µM) and the MIC (K. pneumoniae ATCC 13883) was 2 µg/mL (≈ 1.26 µM). The MIC (K. pneumoniae JS-123) was 0.5 µg/mL (≈ 0.314 µM), the MIC (A. baumannii 2018-006) was 4 µg/mL (≈ 2.52 µM) and the tolerability [3] was “well tolerated”. The tolerability ([3]; listed as 6) was “good tolerability”, the “dose response of thigh burden” value (E. coli ATCC 25922 [4]; E. coli ATCC 25922 thigh infection, 10, 20 and 40 mg kg^−1 SC q8h) was “clear dose response” and the “reduction in bacterial load relative to the untreated group” value (E. coli ATCC 25922 [4]; thigh infection with E. coli ATCC 25922, 40 mg kg^−1 SC q8h starting 1 h post-infection, thigh burden cfu g^−1 at 20.5 h) was ~5 log.

For `CC[C@H](C)[C@@H]1NC(=O)[C@@H](NC(=O)[C@H](Cc2c[nH]c3ccccc23)NC(=O)[C@@H](CCCN)NC(=O)CNC(=O)[C@H](CCCN)NC(=O)[C@@H](CCCN)NC(=O)[C@@H](Cc2c[nH]c3ccccc23)NC(=O)[C@@H](Cc2ccc(O)cc2)NC(=O)[C@@H](CO)NC(=O)CCCCCC(C)C)[C@@H](C)OC(=O)CNC(=O)CNC(=O)[C@H](CC(N)=O)NC1=O` [Lat (2), laterocidine], the MIC (A. baumannii ATCC 17978) was 0.5 µg/mL (≈ 0.312 µM), the MIC (P. aeruginosa ATCC 27853) was ≤0.5 µg/mL and the MIC (P. aeruginosa PAO1) was 1 µg/mL (≈ 0.623 µM). The MIC (P. aeruginosa M-120) was 1 µg/mL (≈ 0.623 µM), the MIC (E. coli ATCC 25922 [1]; ATCC 25922, 16 h) was 1 µg/mL (≈ 0.623 µM) and the MIC (P. aeruginosa NRZ-03961) was 1 to 2 µg/mL. The MIC (A. baumannii ATCC 17961) was 0.5 µg/mL (≈ 0.312 µM), the MIC (K. pneumoniae ATCC 11228) was 2 µg/mL (≈ 1.25 µM) and the MIC (S. aureus USA300) was 64 µg/mL (≈ 39.9 µM). It also gave an MIC (K. pneumoniae 2048) of 2 µg/mL (≈ 1.25 µM), an MIC (K. pneumoniae ATCC 13883) of 1 µg/mL (≈ 0.623 µM) and an MIC (K. pneumoniae JS-123) of 0.5 µg/mL (≈ 0.312 µM). The MIC (A. baumannii 2018-006) was 2 µg/mL (≈ 1.25 µM) and the “decrease of antibacterial activity in the presence of LPS” value (E. coli ATCC 25922 [2]) was ≥ 8 fold.
